The source of these data is patent publication US5049551A, “5-fluorouracil, 2'-deoxy-5-fluorouridine and 1-carbomoyl-5-fluorouracil compounds” (UBE Industries, Ltd., priority 1989, dated 1991).

Data set [1] is described as follows: Acute toxicity, oral, Pharmacological test example 3. To be noted: in vivo, 7 week-old BDF2 female mouse, 21 days after administration, read-out: ID50 (LD50 from mortality). How it is done:
The compounds of the present invention obtained in Examples 4 and 7 were orally administered to 7 week-old BDF2 female mouse (10 mice per group). After 21 days from the administration, mortality of the mice was judged and LD50 value was evaluated from mortality according to the Richfield-Wilcokson method.

The subject of data set [2] is KB cell. In words: Cell proliferation inhibition, KB cells, Pharmacological test example 2. It is filed as cell-based. To be noted: Homo sapiens, 5×10^3 planted, compound added after 24 hours, 5 days culture, read-out: IC50 (50% cell proliferation inhibiting concentration). On the procedure:
To a microwell having 9 holes were planted KB cell with 5×10^3, respectively, and after 24 hours, the compound of the present invention obtained in Example 7 and 5-fluorouracil were added. After cultivating for 5 days, the number of cells were measured and from a cell proliferation inhibiting ratio-concentration curve, 50% cell proliferation inhibiting concentration (IC50 value) at which the inhibiting ratio becomes 50% was evaluated.

The conditions of data set [3]: background; cited from earlier work.
For data set [4], the system named is KB cell. Nature of the data set: Cell proliferation inhibition, KB cells, Pharmacological test example 1. In kind it is cell-based. To be noted: Homo sapiens, 2×10^4 planted, compound added after 12 hours, 5 days culture, read-out: IC50 (50% cell proliferation inhibiting concentration).

A word on the LD50: it is the dose expected to kill half of the subjects tested. For the compound `CCCC(CCC)C(=O)NCC(=O)NCCCCCCNC(=O)n1cc(F)c(=O)[nH]c1=O` [Example 7, 1-[6-[N-(2-n-propyl-n-pentanoyl)glycyl]amino-n-hexylcarbamoyl]-5-fluorouracil], the median lethal dose (LD50) at 504 h in data set [1] was at least 1000 mg/kg. Besides, the IC50 in the data set on KB cell [2] was found to be 660 nM.
Turning to `O=c1[nH]c(=O)n(C2CCCO2)cc1F` (centres unmarked) [Tegafur, 1-(2-tetrahydrofulyl)-5-fluorouracil], the “antitumor effects compared with 5-fluorouracil” value in data set [3] is “inferior to that of 5-fluorouracil”.
As for `O=c1[nH]cc(F)c(=O)[nH]1` [5-Fluorouracil, 5-fluorouracil], the LD50 at 504 h in data set [1] stood at 928 mg/kg. In addition, the IC50 in the data set with KB cell [4] stood at 17700 nM. The IC50 with KB cell [2] was 750 nM. Also, in data set [3], the antitumor activity entry is given as “insufficient” and the toxicity result is listed as “potent toxicity”.
Turning to `CCCC(CCC)C(=O)NCC(=O)OC[C@H]1O[C@@H](n2cc(F)c(=O)[nH]c2=O)[C@H](O)[C@@H]1OC(=O)CNC(=O)C(CCC)CCC` [Example 4, 3',5'-bis-O-[N-(2n-propyl-n-pentanoyl)-glycyl]-5-fluorouridine], the LD50 at 504 h in data set [1] is at least 3000 mg/kg. For the same compound, the IC50 with KB cell [4] was found to be 1800 nM.
With `CCCC(CCC)C(=O)NCC(=O)OC[C@H]1O[C@@H](n2cc(F)c(=O)[nH]c2=O)[C@H](OC(=O)CNC(=O)C(CCC)CCC)[C@@H]1OC(=O)CNC(=O)C(CCC)CCC` [Example 1, 2',3',5'-tris-O-[N-(2-n-propyl-n-pentanoyl)-glycyl]-5-fluorouridine], in data set [1], the 50% lethal dose (LD50) at 504 h is at least 5000 mg/kg. Moreover, the IC50 in the data set with KB cell [4] is 2000 nM.
Consider `C[C@H]1O[C@@H](n2cc(F)c(=O)[nH]c2=O)[C@H](O)[C@@H]1O` [Doxifluridine, 5'-deoxy-5-fluorouridine], for which the “antitumor effects compared with 5-fluorouracil” value in data set [3] is reported as “inferior to that of 5-fluorouracil”.
For `CCCCCCNC(=O)n1cc(F)c(=O)[nH]c1=O` [Carmofur, 1-n-hexylcarbamoyl-5-fluorouracil], the “antitumor effects compared with 5-fluorouracil” value in data set [3] is “inferior to that of 5-fluorouracil”.
